In patent publication US10172805B2, “Prolonged release formulations comprising an 2-oxo-1-pyrrolidine derivative” (UCB BIOPHARMA SPRL, priority 2008, dated 2019):

Assays:
[1] = tested on: mice; assay: chemically induced seizures in mice (pentylenetetrazol); assay type: in vivo; conditions: i.p. 30 min before seizure induction; higher ED50 values than audiogenic
Procedure: The dose was selected based on dose-effect curves in saline-treated animals as the convulsive dose inducing clonic convulsions of all four extremities in 97% of the animals. Immediately after administration of the chemoconvulsant, the mice were placed individually in small plastic cages (25 13 8 cm) and observed for the presence of clonic convulsions in all four extremities, for 60 min. The occurrence of tonic convulsions (hindlimb extension) and mortality was also recorded during this interval. The proportion of mice protected against clonic convulsions was calculated and used as the end point for anticonvulsant activity.

[2] = tested on: GAERS rats; assay: spontaneous SWDs in GAERS rats; assay type: in vivo, rat
[3] = tested on: patients with post-herpetic neuralgia; assay: treatment of patients with post-herpetic neuralgia; assay type: in vivo, human
Procedure: (§1) Brivaracetam is effective in the treatment of epilepsy. A clinical trial evaluated the efficacy and safety of Brivaracetam (5, 20 and 50 mg per day) in the adjunctive treatment of adult patients with refractory partial onset seizures, with or without secondary generalization. Brivaracetam is also effective in the treatment of patients with post-herpetic neuralgia.

[4] = tested on: amygdala-kindled rats; assay: fully amygdala-kindled rats; assay type: in vivo, rat; conditions: for dose significantly reducing the after-discharge duration: brivaracetam at highest dose tested, levetiracetam inactive up to stated dose
[5] = tested on: rat hippocampal slices; assay: epileptiform responses in hippocampal slices induced by high-K+/low-Ca2+ fluid (HKLCF); assay type: cell-based, Sprague-Dawley rats; parameters: rate of spontaneous field bursting: dose or concentration left out as unconfirmed; conditions: for evoked epileptiform responses (PS1 amplitude, repetitive PSs) in CA3 area: HKLCF perfusion, fimbrial stimulation
Procedure: The effect of brivaracetam on epileptiform responses induced by high-K+/low-Ca2+ concentrations or by bicuculline was examined in transverse hippocampal slices prepared from Sprague-Dawley rats according to previously reported standard procedures. The epileptiform responses were induced by passing from a normal perfusion of artificial cerebrospinal fluid (ACSF) (K+3 mM; Ca2+2.4 mM) to either high-K+/low-Ca2+ fluid (HKLCF) (K+7.5 mM; Ca2+0.5 mM) or to […] bicuculline methiodide (BMI)-containing ACSF.
Extracellular field potentials (FPs) were recorded in the CA3 area of the slices with 2 M NaCl-filled glass microelectrodes. The evoked FPs were recorded at 10-min intervals in response to fimbrial stimulation with constant current rectangular pulses that elicit a single population spike (PS) of 50-75% of the maximal amplitude when the slice is in ACSF. In the HKLCF model, 2 min of spontaneous activity were also recorded, in the middle of each 10-min interval between the recordings of evoked responses.
Either brivaracetam or levetiracetam was added to the bathing fluid of the slices 20 min before shifting from ACSF to either HKLCF or […] BMI-containing ACSF, and was kept in the perfusion fluid throughout the experiment.

[6] = tested on: mice; assay: corneal kindling of mice; assay type: in vivo
[7] = BCS classification; assay type: physicochemical
Procedure: Considering Levetiracetam, Brivaracetam and Seletracetam are classified as BCS I, in order to achieve a prolonged therapeutic plasmatic drug level the resulting in vitro dissolution (USP<711> apparatus n°2) in a buffered aqueous media has to show a drug release of no more than 40% after 1 hour of dissolution, of 25% -80% after 4 hours of dissolution and of no less than 80% after 16 hours of dissolution. Preferably, a profile of no more than 35% after 1 hour of dissolution, of 35% -75% after 4 hours of dissolution and of no less than 80% after 16 hours of dissolution. More preferably a profile of no more than 30% after 1 hour of dissolution, of 45% -70% after 4 hours of dissolution and of no less than 80% after 16 hours of dissolution.

[8] = tested on: mice; assay: maximal electroshock in mice; assay type: in vivo; conditions: i.p. 30 min before seizure induction; higher ED50 values than audiogenic
[9] = tested on: adult patients with refractory partial onset seizures; assay: clinical studies, adjunctive treatment of partial onset seizures (epilepsy); assay type: in vivo, human
Procedure: as §1
Seletracetam is effective in the treatment of epilepsy. Two studies were conducted with Seletracetam in epilepsy evaluating the efficacy and safety of Seletracetam in the adjunctive treatment of partial onset seizures in highly refractory adult patients currently receiving up to three concomitant anti-epileptic drugs.

[10] = tested on: genetically sound-sensitive male mice; assay: audiogenic seizures in mice; assay type: in vivo; conditions: audiogenic seizure-susceptible mice; i.p.
Procedure: Audiogenic seizures in mice: Genetically sound-sensitive male mice (16-28 g; n=10 per group), responding with wild running, clonic and tonic convulsions to an acoustic stimulation, were used. Audiogenic seizures were induced by an acoustic stimulus (90 dB, 10-20 kHz) applied for 30 s. The mice were pretreated with either saline, brivaracetam (i.p., 30 min) or levetiracetam (i.p., 60 min), and the proportion of mice protected against clonic convulsions was used as the end point to assess anticonvulsant activity.

[11] = tested on: rat hippocampal slices; conditions: introductory statement; cited from earlier work
[12] = tested on: rat hippocampal slices; conditions: introductory statement; cited from earlier work; remark: listed apart in the source
[13] = water solubility; assay type: physicochemical
[14] = A. J. GOWER et al., Eur. J. Pharmacol., 222, (1992), 193-203; cited from earlier work

SMILES | protection against clonic convulsions induced by pentylenetetrazol [1] | dose from which spontaneous SWDs are significantly suppressed [2] [mg/kg] | inhibition of spontaneous SWDs ([2]; highest dose tested (67.9 mg kg−1)) | efficacy in post-herpetic neuralgia [3] | dose from which significant suppression in motor-seizure severity is induced [4] [mg/kg] | dose significantly reducing the after-discharge duration [4] [mg/kg] | rate of spontaneous field bursting ([5]; HKLCF) | evoked epileptiform responses (PS1 amplitude, repetitive PSs) in CA3 area [5] | incidence of generalized motor seizures after termination of treatment ([6]; continued corneal stimulations, group previously treated with the highest dose) | incidence of generalized motor seizures ([6]; pretreatment during corneal kindling, levetiracetam at higher doses) | BCS class [7] | protection against tonic hindlimb extension induced by a maximal electroshock [8] | efficacy in the treatment of epilepsy [9] | protection against clonic convulsions [10] | epileptiform responses induced by high-K+/low-Ca2+ concentrations [11] | epileptiform responses induced by bicuculline [12] | solubility [13] [mg/mL] | activity in the treatment of epilepsy [14]
CCC[C@@H]1CC(=O)N([C@@H](CC)C(N)=O)C1 [Brivaracetam, (2S)-2-[(4R)-2-oxo-4-propyl-pyrrolidin-1-yl] butanamide] | protected | 2.1 | complete inhibition | effective | 21.2 | 212.3 | reduced the rate | reduced these epileptiform responses | persistent reduction | significant reduction | BCS I | protected | effective | protected |  |  |  | 
CC[C@@H](C(N)=O)N1CCCC1=O [Levetiracetam, (S)-(−)α-ethyl-2-oxo-1-pyrrolidineacetamide] |  | 5.4 |  |  | 170 | > 1700 |  | reduced these epileptiform responses |  |  | BCS I |  |  | protected | reduces epileptiform responses | reduces epileptiform responses | > 500 | 
CC[C@@H](C(N)=O)N1C[C@H](C=C(F)F)CC1=O [Seletracetam, (2S)-2-[(4S)-4-(2,2-difluorovinyl)-2-oxo-pyrrolidin-1-yl]butanamide] |  |  |  |  |  |  |  |  |  |  | BCS I |  | effective |  |  |  |  | 
CC[C@H](C(N)=O)N1CCCC1=O [(R)-(+)-α-ethyl-2-oxo-1-pyrrolidine-acetamide] |  |  |  |  |  |  |  |  |  |  |  |  |  |  |  |  |  | completely devoid of activity
